Results from patent publication US20240109900A1, “AZABICYCLIC SHP2 INHIBITORS” (IRBM S.P.A., priority 2021, published 2024).
Where two headings read alike, the source gives them in different places.

Assays:
[1] = target: SHP-2 enzyme (Met1-Leu525) (Homo sapiens (Human), UniProt Q06124); assay: SHP2 inhibition enzymatic assay; type: biochemical; settings: read-out: SHP2wt-IC50
Outline: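 SHP-2 (Met1-Leu525), 0.5 nM, activated with 500 nM IRS1 bis-phosphopeptide, preincubated 30 min with compounds in HEPES pH 7.2 buffer with 5 mM DTT. 75 μM DiFMUP added for 30 min at room temperature, stopped with bpV; fluorescence read. IC50 from four-parameter logistic fit of % inhibition.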

[2] = test system: ERK phosphorylation in KYSE-520 cells; assay: Phospho-ERK cellular assay; type: cell-based; settings: KYSE-520 cells, 2 h at 37° C., phospho-ERK1/2 (Thr202/Tyr204) TR-FRET, read-out: PERK IC50
Outline: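 TR-FRET read-out of ERK1/2 Thr202/Tyr204 phosphorylation was taken after overnight antibody incubation at room temperature. Before that, KYSE-520 cells were treated 2 h at 37 °C with compound dilutions and lysed 30 min. Percent inhibition relative to vehicle and cell-free wells was fitted four-parametrically to give IC50.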

[3] = 0.5 nM SHP-2 activated by 500 nM IRS1 peptide, 75 μM DiFMUP substrate

SHP-2 enzyme (Met1-Leu525), sequence (Q06124 1-525): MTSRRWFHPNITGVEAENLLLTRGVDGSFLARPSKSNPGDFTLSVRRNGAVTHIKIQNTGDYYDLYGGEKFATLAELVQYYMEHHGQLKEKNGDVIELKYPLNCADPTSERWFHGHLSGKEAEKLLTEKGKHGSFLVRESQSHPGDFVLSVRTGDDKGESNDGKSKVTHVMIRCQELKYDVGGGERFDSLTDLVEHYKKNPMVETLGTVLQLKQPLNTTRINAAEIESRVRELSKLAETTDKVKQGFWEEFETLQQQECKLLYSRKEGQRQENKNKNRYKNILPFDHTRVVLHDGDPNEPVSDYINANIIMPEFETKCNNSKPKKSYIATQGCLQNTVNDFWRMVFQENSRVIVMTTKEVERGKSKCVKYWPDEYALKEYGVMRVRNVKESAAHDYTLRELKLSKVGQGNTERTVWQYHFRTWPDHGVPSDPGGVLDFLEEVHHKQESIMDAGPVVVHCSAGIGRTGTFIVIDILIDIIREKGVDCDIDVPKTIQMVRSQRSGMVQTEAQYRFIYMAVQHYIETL

Structure (SMILES) | IC50 [1, 3] [nM] | IC50 ([2]; Homo sapiens, KYSE-520, 2 h) [nM] | IC50 [2] [nM] | IC50 [1] [nM] | IC50 ([2]; Homo sapiens) [nM]
NC[C@]1(c2ccccc2F)[C@@H]2CCN(c3cnc4c(-c5ccc(C6CC6)c6ncccc56)n[nH]c4n3)C[C@@H]21 [Example 139, ((1S,6R,7R)-3-(3-(8-cyclopropylquinolin-5-yl)-1H-pyrazolo[3,4-b]pyrazin-6-yl)-7-(2-fluorophenyl)-3-azabicyclo[4.1.0]heptan-7-yl)methanamine] | < 500 | < 1000 |  |  | 
NC[C@]1(c2ccccc2F)[C@@H]2CCN(c3cnc4c(-c5ccc(O)c(C(F)(F)F)c5)n[nH]c4n3)C[C@@H]21 [Example 360, 4-(6-((1S,6R,7R)-7-(aminomethyl)-7-(2-fluorophenyl)-3-azabicyclo[4.1.0]heptan-3-yl)-1H-pyrazolo[3,4-b]pyrazin-3-yl)-2-(trifluoromethyl)phenol] | < 500 | < 1000 |  |  | 
NC[C@]1(c2ccccc2F)[C@@H]2CCN(c3cnc4c(-c5ccc6c(c5)CCC(=O)N6)n[nH]c4n3)C[C@@H]21 [Example 238, 6-(6-((1S,6R,7R)-7-(aminomethyl)-7-(2-fluorophenyl)-3-azabicyclo[4.1.0]heptan-3-yl)-1H-pyrazolo[3,4-b]pyrazin-3-yl)-3,4-dihydroquinolin-2(1H)-one] | < 500 | < 1000 |  |  | 
NCC1(c2ccccc2F)[C@@H]2CCN(c3cnc(Sc4ccnc(-n5cccn5)c4Cl)cn3)CC[C@@H]21 (stereo partly drawn) [Example 403, ((1R,7S)-4-(5-((3-chloro-2-(1H-pyrazol-1-yl)pyridin-4-yl)thio)pyrazin-2-yl)-8-(2-fluorophenyl)-4-azabicyclo[5.1.0]octan-8-yl)methanamine] | < 500 | > 5000 |  |  | 
NCC1(c2ccc(F)cc2)C2CCN(c3cnc4c(-c5cccc6cccnc56)n[nH]c4n3)CC21 (stereo not drawn) [Example 12, (7-(4-fluorophenyl)-3-(3-(quinolin-8-yl)-1H-pyrazolo[3,4-b]pyrazin-6-yl)-3-azabicyclo[4.1.0]heptan-7-yl)methanamine] | 500 to 3000 | > 5000 |  |  | 
Cn1ccc2c(-c3n[nH]c4nc(N5CC[C@@H]6[C@H](C5)[C@@]6(CN)c5ccccc5F)cnc34)ccc(F)c2c1=O [Example 315, 5-(6-((1S,6R,7R)-7-(aminomethyl)-7-(2-fluorophenyl)-3-azabicyclo[4.1.0]heptan-3-yl)-1H-pyrazolo[3,4-b]pyrazin-3-yl)-8-fluoro-2-methylisoquinolin-1(2H)-one] | < 500 | < 1000 |  |  | 
Cc1cc([C@@]2(CN)[C@@H]3CN(c4cnc5c(-c6ccc7nn(C)cc7c6Cl)n[nH]c5n4)C[C@@H]32)no1 [Example 275, ((1R,5S,6r)-3-(3-(4-chloro-2-methyl-2H-indazol-5-yl)-1H-pyrazolo[3,4-b]pyrazin-6-yl)-6-(5-methylisoxazol-3-yl)-3-azabicyclo[3.1.0]hexan-6-yl)methanamine] | < 500 |  | < 1000 |  | 
Cc1cc([C@@]2(CN)[C@@H]3CCN(c4cnc5c(-c6ccc(OC(F)(F)F)c7ncccc67)n[nH]c5n4)C[C@@H]32)no1 [Example 126, ((1S,6R,7S)-7-(5-methylisoxazol-3-yl)-3-(3-(8-(trifluoromethoxy)quinolin-5-yl)-1H-pyrazolo[3,4-b]pyrazin-6-yl)-3-azabicyclo[4.1.0]heptan-7-yl)methanamine] | < 500 | < 1000 |  |  | 
Cn1c(=O)n(C)c2cc(-c3n[nH]c4nc(N5CC[C@@H]6[C@H](C5)[C@@]6(CN)c5ccccc5F)cnc34)ccc21 [Example 232, 5-(6-((1S,6R,7R)-7-(aminomethyl)-7-(2-fluorophenyl)-3-azabicyclo[4.1.0]heptan-3-yl)-1H-pyrazolo[3,4-b]pyrazin-3-yl)-1,3-dimethyl-1,3-dihydro-2H-benzo[d]imidazol-2-one] | < 500 | < 1000 |  |  | 
Cc1cc(C2(CN)C3CCN(c4cnc5c(-c6ccnc7cccnc67)n[nH]c5n4)CC32)no1 (stereo not drawn) [Example 35, (3-(3-(1,5-naphthyridin-4-yl)-1H-pyrazolo[3,4-b]pyrazin-6-yl)-7-(5-methylisoxazol-3-yl)-3-azabicyclo[4.1.0]heptan-7-yl)methanamine] | 500 to 3000 | 1000 to 5000 |  |  | 
Cc1c(-c2n[nH]c3nc(N4CC[C@@H]5[C@H](C4)[C@@]5(CN)c4ccccc4F)cnc23)ccc2ncccc12 [Example 172, ((1S,6R,7R)-7-(2-fluorophenyl)-3-(3-(5-methylquinolin-6-yl)-1H-pyrazolo[3,4-b]pyrazin-6-yl)-3-azabicyclo[4.1.0]heptan-7-yl)methanamine] | < 500 | < 1000 |  |  | 
Cc1csc(C2(CN)C3CCN(c4cnc(Sc5ccnc(N)c5Cl)c(N)n4)CC32)n1 (stereo not drawn) [Example 74, 3-((2-amino-3-chloropyridin-4-yl)thio)-6-(7-(aminomethyl)-7-(4-methylthiazol-2-yl)-3-azabicyclo[4.1.0]heptan-3-yl)pyrazin-2-amine] |  |  |  | < 500 | 1000 to 5000
COc1ccc(-c2n[nH]c3nc(N4CC[C@@H]5[C@H](C4)[C@@]5(CN)c4ccccc4F)cnc23)nc1N [Example 214, 6-(6-((1S,6R,7R)-7-(aminomethyl)-7-(2-fluorophenyl)-3-azabicyclo[4.1.0]heptan-3-yl)-1H-pyrazolo[3,4-b]pyrazin-3-yl)-3-methoxypyridin-2-amine] | < 500 | > 5000 |  |  | 
CN(C)C(=O)Cn1ncc2c(Cl)c(-c3n[nH]c4nc(N5CC[C@@H]6[C@H](C5)[C@@]6(CN)c5ccccc5F)cnc34)ccc21 [Example 432] | < 500 |  | < 1000 |  | 
NC[C@]1(c2cc(F)ccc2F)[C@@H]2CCN(c3cnc(Sc4ccnc(C5CC5)c4Cl)c(N)n3)C[C@@H]21 [Example 430, 6-((1S,6R,7R)-7-(aminomethyl)-7-(2,5-difluorophenyl)-3-azabicyclo[4.1.0]heptan-3-yl)-3-((3-chloro-2-cyclopropylpyridin-4-yl)thio)pyrazin-2-amine] | < 500 | < 1000 |  |  | 
NC[C@]1(c2ccccc2F)[C@@H]2CCN(c3cnc4c(-c5ccc6ccc(=O)[nH]c6c5Cl)n[nH]c4n3)C[C@@H]21 [Example 237, 7-(6-((1S,6R,7R)-7-(aminomethyl)-7-(2-fluorophenyl)-3-azabicyclo[4.1.0]heptan-3-yl)-1H-pyrazolo[3,4-b]pyrazin-3-yl)-8-chloroquinolin-2(1H)-one] | < 500 | < 1000 |  |  | 
Cn1cc2c(Cl)c(-c3n[nH]c4nc(N5C[C@@H]6[C@H](C5)[C@@]6(CN)c5ccc(F)cn5)cnc34)ccc2n1 [Example 495, ((1R,5S,6r)-3-(3-(4-chloro-2-methyl-2H-indazol-5-yl)-1H-pyrazolo[3,4-b]pyrazin-6-yl)-6-(5-fluoropyridin-2-yl)-3-azabicyclo[3.1.0]hexan-6-yl)methanamine] | < 500 | < 1000 |  |  | 
Cc1cc([C@@]2(CN)[C@@H]3CCN(c4cnc5c(-c6ccc7nc(C(F)(F)F)ccc7c6)n[nH]c5n4)C[C@@H]32)no1 [Example 150, ((1S,6R,7S)-7-(5-methylisoxazol-3-yl)-3-(3-(2-(trifluoromethyl)quinolin-6-yl)-1H-pyrazolo[3,4-b]pyrazin-6-yl)-3-azabicyclo[4.1.0]heptan-7-yl)methanamine] | < 500 | < 1000 |  |  | 
NC[C@]1(c2ccccc2)[C@@H]2CN(c3cnc4c(-c5cc(F)c6ncccc6c5)n[nH]c4n3)C[C@@H]21 [Example 455, ((1R,5S,6s)-3-(3-(8-fluoroquinolin-6-yl)-1H-pyrazolo[3,4-b]pyrazin-6-yl)-6-phenyl-3-azabicyclo[3.1.0]hexan-6-yl)methanamine] | < 500 | < 1000 |  |  | 
NC[C@]1(c2ccccc2F)[C@@H]2CCN(c3cnc4c(-c5ccc6nccnc6c5Cl)n[nH]c4n3)C[C@@H]21 [Example 167, ((1S,6R,7R)-3-(3-(5-chloroquinoxalin-6-yl)-1H-pyrazolo[3,4-b]pyrazin-6-yl)-7-(2-fluorophenyl)-3-azabicyclo[4.1.0]heptan-7-yl)methanamine] | < 500 | < 1000 |  |  | 
Cc1csc([C@@]2(CN)[C@@H]3CN(c4cnc5c(-c6ccc7cn(C(F)F)nc7c6Cl)n[nH]c5n4)C[C@@H]32)n1 [Example 464] | < 500 |  | < 1000 |  | 
NC[C@]1(c2ccccc2F)[C@@H]2CCN(c3cnc(Sc4cccc5ncccc45)cn3)C[C@@H]21 [Example 422, ((1S,6R,7R)-7-(2-fluorophenyl)-3-(5-(quinolin-5-ylthio)pyrazin-2-yl)-3-azabicyclo[4.1.0]heptan-7-yl)methanamine] | < 500 | < 1000 |  |  | 
Cc1nccc(Sc2ccc3nc(N4CC[C@@H]5[C@H](C4)[C@@]5(CN)c4ccccc4F)cnc3n2)c1F [Example 419, ((1S,6R,7R)-3-(6-((3-fluoro-2-methylpyridin-4-yl)thio)pyrido[2,3-b]pyrazin-2-yl)-7-(2-fluorophenyl)-3-azabicyclo[4.1.0]heptan-7-yl)methanamine] | < 500 | < 1000 |  |  | 
Cn1ccc2c(-c3n[nH]c4nc(N5CC[C@@H]6[C@H](C5)[C@@]6(CN)c5ccccc5F)cnc34)cccc2c1=O [Example 274, 5-(6-((1S,6R,7R)-7-(aminomethyl)-7-(2-fluorophenyl)-3-azabicyclo[4.1.0]heptan-3-yl)-1H-pyrazolo[3,4-b]pyrazin-3-yl)-2-methylisoquinolin-1(2H)-one] | < 500 | < 1000 |  |  | 
